Data from article PMC5218480 (PLoS ONE, 2017).

Tested on: MV-4-11 cells
Assay: Gene expression microarray analysis (Affymetrix PrimeView) and GSEA
Format: cell-based, human
Set-up: RFU PODN (11730768_x_at) / Fold change /veh PODN (11730768_x_at) / RFU LINC00158 (11744669_a_at) / Fold change /veh LINC00158 (11744669_a_at) / RFU DUSP10 (11751237_a_at) / Fold change /veh DUSP10 (11751237_a_at) / RFU ID3 (11757404_x_at) / Fold change /veh ID3 (11757404_x_at) / RFU PLEKHG5 (11737974_s_at) / Fold change /veh PLEKHG5 (11737974_s_at) / RFU LRRC4B (11730491_at) / Fold change /veh LRRC4B (11730491_at) / RFU GIMAP4 (11747438_a_at) / Fold change /veh GIMAP4 (11747438_a_at) / RFU KRT8 (11758183_x_at) / Fold change /veh KRT8 (11758183_x_at) / RFU CNN1 (11734310_a_at) / Fold change /veh CNN1 (11734310_a_at) / RFU VPS37D (11726825_at) / Fold change /veh VPS37D (11726825_at) / RFU C10orf10 (11716522_x_at) / Fold change /veh C10orf10 (11716522_x_at) / RFU KIR2DL2 /// KIR2DL4 /// KIR2DL5A /// KIR2DL5B /// KIR2DS1 /// KIR2DS2 /// KIR2DS3 /// KIR2DS4 /// KIR3DL3 /// KIR3DL3 /// KIR3DS1 (11738374_at) / Fold change /veh KIR2DL2 /// KIR2DL4 /// KIR2DL5A /// KIR2DL5B /// KIR2DS1 /// KIR2DS2 /// KIR2DS3 /// KIR2DS4 /// KIR3DL3 /// KIR3DL3 /// KIR3DS1 (11738374_at) / RFU C1QL1 (11718748_at) / Fold change /veh C1QL1 (11718748_at) / RFU TMPRSS4 (11747572_a_at) / Fold change /veh TMPRSS4 (11747572_a_at) / RFU HAMP (11756126_x_at) / Fold change /veh HAMP (11756126_x_at) / RFU RNFT2 (11725882_a_at) / Fold change /veh RNFT2 (11725882_a_at) / RFU NR4A2 (11747474_a_at) / Fold change /veh NR4A2 (11747474_a_at) / RFU ABCC12 (11746883_a_at) / Fold change /veh ABCC12 (11746883_a_at) / RFU TMEM136 (11760407_x_at) / Fold change /veh TMEM136 (11760407_x_at) / RFU CLDN22 /// WWC2 (11732394_at) / Fold change /veh CLDN22 /// WWC2 (11732394_at) / RFU HLA-DPB1 (11760878_x_at) / Fold change /veh HLA-DPB1 (11760878_x_at) / RFU SPINT1 (11716480_a_at) / Fold change /veh SPINT1 (11716480_a_at) / RFU GAP43 (11754022_s_at) / Fold change /veh GAP43 (11754022_s_at) / RFU A4GNT (11735810_at) / Fold change /veh A4GNT (11735810_at) / RFU PRB3 (11715151_x_at) / Fold change /veh PRB3 (11715151_x_at) / RFU TUBB4B (11761932_at) / Fold change /veh TUBB4B (11761932_at) / RFU CAPN14 (11732068_a_at) / Fold change /veh CAPN14 (11732068_a_at) / RFU TMCC2 (11721928_a_at) / Fold change /veh TMCC2 (11721928_a_at) / RFU IRGQ (11745062_a_at) / Fold change /veh IRGQ (11745062_a_at) / RFU FAM174B (11720279_a_at) / Fold change /veh FAM174B (11720279_a_at) / RFU TMPRSS4 (11748680_a_at) / Fold change /veh TMPRSS4 (11748680_a_at) / RFU FAM212B (11763350_a_at) / Fold change /veh FAM212B (11763350_a_at) / RFU PLEKHG5 (11743358_a_at) / Fold change /veh PLEKHG5 (11743358_a_at) / RFU ZSCAN30 (11745921_a_at) / Fold change /veh ZSCAN30 (11745921_a_at) / RFU CMKLR1 (11741424_a_at) / Fold change /veh CMKLR1 (11741424_a_at) / RFU LOC101060620 /// MAPK8IP1 (11723275_at) / Fold change /veh LOC101060620 /// MAPK8IP1 (11723275_at) / RFU SPTSSB (11747773_x_at) / Fold change /veh SPTSSB (11747773_x_at) / RFU PRSS12 (11739890_at) / Fold change /veh PRSS12 (11739890_at) / RFU BIN1 (11741810_x_at) / Fold change /veh BIN1 (11741810_x_at) / RFU WNT11 (11732464_a_at) / Fold change /veh WNT11 (11732464_a_at) / RFU C10orf10 (11716521_a_at) / Fold change /veh C10orf10 (11716521_a_at) / RFU C5orf56 (11738089_at) / Fold change /veh C5orf56 (11738089_at) / RFU CYB561 (11721691_x_at) / Fold change /veh CYB561 (11721691_x_at) / RFU ANKRD19P (11752326_a_at) / Fold change /veh ANKRD19P (11752326_a_at) / RFU OR2T12 /// OR2T33 /// OR2T8 (11738714_s_at) / Fold change /veh OR2T12 /// OR2T33 /// OR2T8 (11738714_s_at) / RFU VCAN (11748164_a_at) / Fold change /veh VCAN (11748164_a_at) / RFU JSRP1 (11732532_at) / Fold change /veh JSRP1 (11732532_at) / RFU KRTAP10-11 (11738290_x_at) / Fold change /veh KRTAP10-11 (11738290_x_at) / RFU MYO3A (11730013_a_at) / Fold change /veh MYO3A (11730013_a_at) / RFU EBF3 (11725865_a_at) / Fold change /veh EBF3 (11725865_a_at) / RFU CAMK2N1 (11719241_x_at) / Fold change /veh CAMK2N1 (11719241_x_at) / RFU C5orf56 (11738088_a_at) / Fold change /veh C5orf56 (11738088_a_at) / RFU OLFML3 (11715873_a_at) / Fold change /veh OLFML3 (11715873_a_at) / RFU LOC100653217 /// NTM (11731650_a_at) / Fold change /veh LOC100653217 /// NTM (11731650_a_at) / RFU MAPK11 (11762145_a_at) / Fold change /veh MAPK11 (11762145_a_at) / RFU FIZ1 (11724087_x_at) / Fold change /veh FIZ1 (11724087_x_at) / RFU OASL (11726364_x_at) / Fold change /veh OASL (11726364_x_at) / RFU SOX15 (11748057_x_at) / Fold change /veh SOX15 (11748057_x_at) / RFU CD79A (11719716_a_at) / Fold change /veh CD79A (11719716_a_at) / RFU HIST1H1D (11736915_at) / Fold change /veh HIST1H1D (11736915_at) / RFU CASKIN2 (11723855_a_at) / Fold change /veh CASKIN2 (11723855_a_at) / RFU LOC730098 (11760151_x_at) / Fold change /veh LOC730098 (11760151_x_at) / RFU OR4N2 (11742367_at) / Fold change /veh OR4N2 (11742367_at) / RFU PRRT2 (11749266_a_at) / Fold change /veh PRRT2 (11749266_a_at) / RFU SNX32 (11753110_a_at) / Fold change /veh SNX32 (11753110_a_at) / RFU CDHR5 (11726645_a_at) / Fold change /veh CDHR5 (11726645_a_at) / RFU RCAN1 (11760418_a_at) / Fold change /veh RCAN1 (11760418_a_at) / RFU FAM167A (11723789_a_at) / Fold change /veh FAM167A (11723789_a_at) / RFU FAM26E (11764081_at) / Fold change /veh FAM26E (11764081_at) / RFU ISYNA1 (11749810_s_at) / Fold change /veh ISYNA1 (11749810_s_at) / RFU ACY1 (11761880_at) / Fold change /veh ACY1 (11761880_at) / RFU 11764098_at / Fold change /veh 11764098_at / RFU SAMD14 (11745864_x_at) / Fold change /veh SAMD14 (11745864_x_at) / RFU NPB (11741838_a_at) / Fold change /veh NPB (11741838_a_at) / RFU TMPRSS6 (11731388_a_at) / Fold change /veh TMPRSS6 (11731388_a_at) / RFU KRTAP10-2 (11738614_at) / Fold change /veh KRTAP10-2 (11738614_at) / RFU ARHGAP8 /// PRR5-ARHGAP8 (11727945_x_at) / Fold change /veh ARHGAP8 /// PRR5-ARHGAP8 (11727945_x_at) / RFU KRTAP5-7 /// NADSYN1 (11734609_at) / Fold change /veh KRTAP5-7 /// NADSYN1 (11734609_at) / RFU RASL12 (11751679_a_at) / Fold change /veh RASL12 (11751679_a_at) / RFU CDKN2B (11736163_a_at) / Fold change /veh CDKN2B (11736163_a_at) / RFU PRF1 (11729649_at) / Fold change /veh PRF1 (11729649_at) / RFU, ZNF638 /// ZNF638-IT1 / Fold change vs veh, ZNF638 /// ZNF638-IT1 / RFU, PANK3 / Fold change vs veh, PANK3 / RFU, SH3YL1 / Fold change vs veh, SH3YL1 / RFU, ZEB2 / Fold change vs veh, ZEB2 / RFU, NRIP1 / Fold change vs veh, NRIP1 / RFU, PTTG1IP / Fold change vs veh, PTTG1IP / RFU, CAPN2 / Fold change vs veh, CAPN2 / RFU, MED14 / Fold change vs veh, MED14 / RFU, SNORA58 / Fold change vs veh, SNORA58 / RFU, C1orf63 / Fold change vs veh, C1orf63 / RFU, LRRFIP1 / Fold change vs veh, LRRFIP1 / RFU, NDUFAF7 / Fold change vs veh, NDUFAF7 / RFU, SLC12A2 / Fold change vs veh, SLC12A2 / RFU, IBTK / Fold change vs veh, IBTK / RFU, ESF1 / Fold change vs veh, ESF1 / Fold change vs veh, TMEM50B / RFU, TAOK1 / Fold change vs veh, TAOK1 / RFU, ACBD3 / Fold change vs veh, ACBD3 / RFU, TMA16 / Fold change vs veh, TMA16 / RFU, RWDD3 / Fold change vs veh, RWDD3 / RFU, BCAT1 / Fold change vs veh, BCAT1 / RFU, EDEM3 / Fold change vs veh, EDEM3 / RFU, TMEM33 / Fold change vs veh, TMEM33 / RFU, WDR75 / Fold change vs veh, WDR75 / RFU, AHCTF1 / Fold change vs veh, AHCTF1 / RFU, TFRC / Fold change vs veh, TFRC / RFU, ZDHHC17 / Fold change vs veh, ZDHHC17 / RFU, NOM1 / Fold change vs veh, NOM1 / RFU, ARL8B / Fold change vs veh, ARL8B / RFU, ZBTB11 / Fold change vs veh, ZBTB11 / RFU, TAMM41 / Fold change vs veh, TAMM41 / RFU, KIAA1704 /// LOC100996395 / Fold change vs veh, KIAA1704 /// LOC100996395 / RFU, ING1 / Fold change vs veh, ING1 / RFU, TRMT61B / Fold change vs veh, TRMT61B / RFU, FUBP3 / Fold change vs veh, FUBP3 / RFU, TP53 / Fold change vs veh, TP53 / RFU, TNKS2 / Fold change vs veh, TNKS2 / RFU, ZFP14 / Fold change vs veh, ZFP14 / RFU, ACTR2 / Fold change vs veh, ACTR2 / RFU, PPP3R1 / Fold change vs veh, PPP3R1 / RFU, PIK3R1 / Fold change vs veh, PIK3R1 / RFU, HNRNPA1 / Fold change vs veh, HNRNPA1 / RFU, RNF170 / Fold change vs veh, RNF170 / RFU, ZNF28 / Fold change vs veh, ZNF28 / RFU, RNGTT / Fold change vs veh, RNGTT / RFU, OGT / Fold change vs veh, OGT / RFU, BRD1 / Fold change vs veh, BRD1 / RFU, MARS / Fold change vs veh, MARS / RFU, ZNF655 / Fold change vs veh, ZNF655 / RFU, FAHD1 / Fold change vs veh, FAHD1 / RFU, BDP1 / Fold change vs veh, BDP1 / RFU, LRRCC1 / Fold change vs veh, LRRCC1 / RFU, ARID1A / Fold change vs veh, ARID1A / RFU, ZNF146 / Fold change vs veh, ZNF146 / RFU, ZNF330 / Fold change vs veh, ZNF330 / RFU, GPN3 / Fold change vs veh, GPN3 / RFU, C9orf123 / Fold change vs veh, C9orf123 / RFU, N4BP2L2 / Fold change vs veh, N4BP2L2 / RFU, ARFIP1 / Fold change vs veh, ARFIP1 / RFU, FAM179B / Fold change vs veh, FAM179B / RFU, BCL10 / Fold change vs veh, BCL10 / RFU, UHRF1BP1L / Fold change vs veh, UHRF1BP1L / RFU, BET1 / Fold change vs veh, BET1 / RFU, CNOT2 / Fold change vs veh, CNOT2 / RFU, ZNF268 / Fold change vs veh, ZNF268 / Fold change vs veh, ZNF507 / RFU, DGCR2 / Fold change vs veh, DGCR2 / RFU, WDSUB1 / Fold change vs veh, WDSUB1 / Fold change vs veh, HSP90B1 /// MIR3652 / RFU, ADSS / Fold change vs veh, ADSS / RFU, GK / Fold change vs veh, GK / RFU, ZNF148 / Fold change vs veh, ZNF148 / RFU, TAF9 / Fold change vs veh, TAF9 / RFU, SLC1A5 / Fold change vs veh, SLC1A5 / RFU, SLMO2 / Fold change vs veh, SLMO2 / RFU, ABCC4 / Fold change vs veh, ABCC4 / RFU, LOC101060439 /// RAP1B / Fold change vs veh, LOC101060439 /// RAP1B / RFU, RFX7 / Fold change vs veh, RFX7 / RFU, GTPBP10 / Fold change vs veh, GTPBP10 / RFU, CNEP1R1 / Fold change vs veh, CNEP1R1 / RFU, BIVM-ERCC5 /// ERCC5 / Fold change vs veh, BIVM-ERCC5 /// ERCC5 / RFU, ILF3 / Fold change vs veh, ILF3 / RFU 11762660_at / Fold change /veh 11762660_at / RFU VCAN (11757783_s_at) / Fold change /veh VCAN (11757783_s_at) / RFU DDX43 (11728927_at) / Fold change /veh DDX43 (11728927_at) / RFU KRT8 (11758188_x_at) / Fold change /veh KRT8 (11758188_x_at) / RFU NKD1 (11759106_at) / Fold change /veh NKD1 (11759106_at) / RFU SRD5A1 (11742802_a_at) / Fold change /veh SRD5A1 (11742802_a_at) / RFU TPSAB1 /// TPSB2 (11721975_s_at) / Fold change /veh TPSAB1 /// TPSB2 (11721975_s_at) / RFU GSTM3 (11746129_a_at) / Fold change /veh GSTM3 (11746129_a_at) / RFU IL23R (11737362_x_at) / Fold change /veh IL23R (11737362_x_at) / RFU TMEM51 (11727254_a_at) / Fold change /veh TMEM51 (11727254_a_at) / RFU PIWIL2 (11732686_x_at) / Fold change /veh PIWIL2 (11732686_x_at) / RFU ORM1 (11744905_x_at) / Fold change /veh ORM1 (11744905_x_at) / RFU CCDC152 (11743942_at) / Fold change /veh CCDC152 (11743942_at) / RFU ECM1 (11717891_a_at) / Fold change /veh ECM1 (11717891_a_at) / RFU IL23R (11748794_a_at) / Fold change /veh IL23R (11748794_a_at) / RFU TNFAIP8L3 (11732012_x_at) / Fold change /veh TNFAIP8L3 (11732012_x_at) / RFU MBOAT4 (11741988_at) / Fold change /veh MBOAT4 (11741988_at) / RFU 11764193_at / Fold change /veh 11764193_at / RFU TMEM53 (11763286_at) / Fold change /veh TMEM53 (11763286_at) / RFU MAGEB2 (11727129_at) / Fold change /veh MAGEB2 (11727129_at) / RFU TMEM200A (11744735_a_at) / Fold change /veh TMEM200A (11744735_a_at) / RFU CCDC152 (11751479_a_at) / Fold change /veh CCDC152 (11751479_a_at) / RFU FAM211A (11726209_a_at) / Fold change /veh FAM211A (11726209_a_at) / RFU RGS16 (11746705_a_at) / Fold change /veh RGS16 (11746705_a_at) / RFU VCAN (11755009_s_at) / Fold change /veh VCAN (11755009_s_at) / RFU RHOB (11743442_s_at) / Fold change /veh RHOB (11743442_s_at) / RFU RGS16 (11720943_a_at) / Fold change /veh RGS16 (11720943_a_at) / RFU RGS16 (11720944_at) / Fold change /veh RGS16 (11720944_at) / RFU, VPS4B / Fold change vs veh, VPS4B / RFU, CREB1 / Fold change vs veh, CREB1 / RFU, DNAJC13 / Fold change vs veh, DNAJC13 / RFU, GNAQ / Fold change vs veh, GNAQ / RFU, CDK5R1 / Fold change vs veh, CDK5R1 / RFU, ZRANB3 / Fold change vs veh, ZRANB3 / RFU, CUL4A / Fold change vs veh, CUL4A / RFU, CCNY / Fold change vs veh, CCNY / RFU, UFL1 / Fold change vs veh, UFL1 / RFU, COG3 / Fold change vs veh, COG3 / RFU, DIAPH2 / Fold change vs veh, DIAPH2 / RFU, SKA2 / Fold change vs veh, SKA2 / RFU, AFF3 / Fold change vs veh, AFF3 / RFU, LMF1 / Fold change vs veh, LMF1 / RFU, IPO11 / Fold change vs veh, IPO11 / RFU, DFFB / Fold change vs veh, DFFB / RFU, FOXP1 / Fold change vs veh, FOXP1 / RFU, CARD8 / Fold change vs veh, CARD8 / RFU, STRN3 / Fold change vs veh, STRN3 / RFU, ADK / Fold change vs veh, ADK / RFU, RASSF2 / Fold change vs veh, RASSF2 / RFU, WIPF1 / Fold change vs veh, WIPF1 / RFU, LARP1B / Fold change vs veh, LARP1B / RFU, RASA1 / Fold change vs veh, RASA1 / RFU, RB1 / Fold change vs veh, RB1 / RFU, PPFIA1 / Fold change vs veh, PPFIA1 / RFU, MAT2A / Fold change vs veh, MAT2A / RFU, CCT5 / Fold change vs veh, CCT5 / RFU, WDR92 / Fold change vs veh, WDR92 / RFU, CUX1 / Fold change vs veh, CUX1 / RFU, TTC7A / Fold change vs veh, TTC7A / RFU, TMEM135 / Fold change vs veh, TMEM135 / RFU, DEPTOR / Fold change vs veh, DEPTOR / RFU, CPM / Fold change vs veh, CPM / RFU, DNAJB6 / Fold change vs veh, DNAJB6 / RFU, CACNA2D3 / Fold change vs veh, CACNA2D3 / RFU, DTX4 / Fold change vs veh, DTX4 / RFU, TFCP2 / Fold change vs veh, TFCP2 / RFU, GMCL1 /// GMCL1P1 / Fold change vs veh, GMCL1 /// GMCL1P1 / RFU, AEBP2 / Fold change vs veh, AEBP2 / RFU, SNHG1 /// SNORD22 /// SNORD25 /// SNORD26 /// SNORD27 /// SNORD28 /// SNORD29 /// SNORD31 / Fold change vs veh, SNHG1 /// SNORD22 /// SNORD25 /// SNORD26 /// SNORD27 /// SNORD28 /// SNORD29 /// SNORD31 / Fold change (Aza/veh), C12orf56 (ProbeSet 11735607_a_at) / Fold change (ACY-1035/veh), C12orf56 (ProbeSet 11735607_a_at) / Fold change (Aza/veh), FGFR1OP (ProbeSet 11751329_s_at) / Fold change (ACY-1035/veh), FGFR1OP (ProbeSet 11751329_s_at) / Fold change (Aza/veh), VPS36 (ProbeSet 11739960_a_at) / Fold change (ACY-1035/veh), VPS36 (ProbeSet 11739960_a_at) / RFU SYPL1 (11715823_x_at) / Fold change /veh SYPL1 (11715823_x_at) / RFU IGFBP7 (11715501_s_at) / Fold change /veh IGFBP7 (11715501_s_at) / RFU REEP3 (11722064_at) / Fold change /veh REEP3 (11722064_at) / RFU IGLL1 (11728026_x_at) / Fold change /veh IGLL1 (11728026_x_at): dose or concentration left out as unconfirmed
Settings: ProbeSet 11741199_a_at; LIST B

Nc1ncn([C@@H]2O[C@H](CO)[C@@H](O)[C@H]2O)c(=O)n1 [azacitidine]
Fold change vs veh, LRRCC1: 0.97
